According to patent US10941114B2, “Small molecule lipid II inhibitors” (University Of Maryland, Baltimore, priority 2015, dated 2021):
Where a name gives a salt, the structure may show the parent alone.

tested on: Staphylococcus aureus; assay: Antibacterial activity assay (MIC, broth dilution); type: cell-based; set-up: S. aureus Killing / Bacterial Killing S. aureus: unit not given here; settings: Staphylococcus aureus USA 300 strain; broth microdilution

Row | SMILES | MIC SA USA300 [µg/mL]
1 | CN(CCC#N)c1ccc(/C=C/c2cc(-c3ccccc3)cc(-c3ccc(F)cc3)[n+]2C)cc1.[I-] [Compound 3jc07-2, (E)-2-(4-((2-cyanoethyl)(methyl)amino)styryl)-6-(4-fluorophenyl)-1-methyl-4-phenylpyridin-1-ium iodide salt] | 32
2 | CN(CCC#N)c1ccc(/C=C/c2cc(-c3ccc(I)cc3)cc(-c3ccc(Br)cc3)[n+]2C)cc1 [Compound 3jc07-12, (E)-2-(4-bromophenyl)-6-(4-((2-cyanoethyl)(methyl)amino)styryl)-4-(4-iodophenyl)-1-methylpyridin-1-ium iodide salt] | 32
3 | CN(C)c1ccc(/C=C/c2cc(-c3ccc(I)cc3)cc(-c3ccc(F)cc3)[n+]2C)cc1.[I-] [Compound 3jc07-9, (E)-2-(4-(dimethylamino)styryl)-6-(4-fluorophenyl)-4-(4-iodophenyl)-1-methylpyridin-1-ium iodide salt] | 4
4 | COc1ccc(-c2cc(/C=C/c3ccc(N(C)C)cc3)[n+](C)c(-c3ccc(Br)cc3)c2)cc1.[I-] [Compound 3jc07-7, (E)-2-(4-bromophenyl)-6-(4-(dimethylamino)styryl)-4-(4-methoxyphenyl)-1-methylpyridin-1-ium iodide salt] | 1
5 | CN(CCC#N)c1ccc(/C=C/c2cc(-c3ccc(F)cc3)cc(-c3ccc(F)cc3)[o+]2)cc1.F[B-](F)(F)F [Compound 3jc09-1, (E)-2-(4-((2-cyanoethyl)(methyl)amino)styryl)-4,6-bis(4-fluorophenyl)pyrylium boron tetrafluoride salt] | > 64
6 | CN(CCC#N)c1ccc(/C=C/c2cc(-c3ccccc3)cc(-c3ccc(Br)cc3)[n+]2C)cc1.[I-] [Compound 3jc07-4, (E)-2-(4-bromophenyl)-6-(4-((2-cyanoethyl)(methyl)amino)styryl)-1-methyl-4-phenylpyridin-1-ium iodide salt] | 32
7 | CN(C)c1ccc(/C=C/c2cc(-c3ccccc3)cc(-c3ccc(Br)cc3)[n+]2C)cc1.[I-] [Compound 3jc07-3, (E)-2-(4-bromophenyl)-6-(4-(dimethylamino)styryl)-1-methyl-4-phenylpyridin-1-ium iodide salt] | 2
8 | CN(CCC#N)c1ccc(/C=C/c2cc(-c3ccc(I)cc3)cc(-c3ccc(F)cc3)[n+]2C)cc1.[I-] [Compound 3jc07-10, (E)-2-(4-((2-cyanoethyl)(methyl)amino)styryl)-6-(4-fluorophenyl)-4-(4-iodophenyl)-1-methylpyridin-1-ium iodide salt] | 32
9 | COc1ccc(-c2cc(/C=C/c3ccc(N(C)C)cc3)[n+](C)c(-c3ccc(F)cc3)c2)cc1.[I-] [Compound 3jc07-5, (E)-2-(4-(dimethylamino)styryl)-6-(4-fluorophenyl)-4-(4-methoxyphenyl)-1-methylpyridin-1-ium iodide salt] | 1

same assay, conditions: Staphylococcus aureus; Table 21; read-out: Staphylococcus aureus MIC

Row | SMILES | MIC [µg/mL]
10 | CN(C)c1ccc(/C=C/c2cc(-c3ccc(C(F)(F)F)cc3)cc(-c3ccc(C(F)(F)F)cc3)[o+]2)cc1.F[B-](F)(F)F | > 64

same assay, conditions: anti-bacterial activity (MIC); strain not stated

Row | SMILES | S. aureus Killing
11 | CN(C)c1ccc(/C=C/C=C/c2cc(-c3ccc(Cl)cc3)cc(-c3ccc(Cl)cc3)[o+]2)cc1 [2,4-bis(4-chlorophenyl)-6-((1E,3E)-4-(4-(dimethylamino)phenyl)buta-1,3-dien-1-yl)pyrylium boron tetrafluoride salt] | >64
12 | Cn1cc(/C=C/c2cc(-c3ccc(C(C)(C)C)cc3)cc(-c3ccc(C(C)(C)C)cc3)[o+]2)c2ccccc21 [(E)-2,4-bis(4-(tert-butyl)phenyl)-6-(2-(1-methyl-1H-indol-3-yl)vinyl)pyrylium boron tetrafluoride salt] | 16
13 | Cc1ccc(-c2cc(/C=C/C=C/c3ccc(N(C)C)cc3)[o+]c(-c3ccc(C)cc3)c2)cc1 [2-((1E,3E)-4-(4-(dimethylamino)phenyl)buta-1,3-dien-1-yl)-4,6-di-p-tolylpyrylium boron tetrafluoride salt] | 2
14 | C(=C\c1cc(-c2ccccc2)cc(-c2ccccc2)[o+]1)/c1cc2c3c(c1)CCCN3CCC2 [(E)-2-(2-(1,2,3,5,6,7-hexahydropyrido [3,2,1-ij]quinolin-9-yl)vinyl)-4,6-diphenylpyrylium boron tetrafluoride salt] | 1
15 | CN(C)c1ccc(/C=C/c2cc(-c3ccc(C(C)(C)C)cc3)cc(-c3ccc(C(C)(C)C)cc3)[o+]2)cc1 [(E)-2,4-bis(4-(tert-butyl)phenyl)-6-(4-(dimethylamino)styryl)pyrylium boron tetrafluoride salt] | 8
16 | Cc1ccc(-c2cc(/C=C/C=C/c3ccc(N(C)C)cc3)[o+]c(-c3ccc(C)c(C)c3)c2)cc1C [2-((1E,3E)-4-(4-(dimethylamino)phenyl)buta-1,3-dien-1-yl)-4,6-bis(3,4~ dimethylphenyl) pyrylium boron tetrafluoride salt] | 32
17 | Cc1cc(C)[o+]c(C)c1 [2,4,6-trimethylpyrylium boron tetrafluoride salt] | >64
18 | Cc1cc(/C=C/C=C/c2ccc(N(C)C)cc2)cc(C)[o+]1 [4-((1E,3E)-4-(4-(dimethylamino)phenyl)buta-1,3-dien-1-yl)-2,6-dimethylpyrylium boron tetrafluoride salt] | 32
19 | Cc1cc(-c2ccc(C(C)(C)C)cc2)cc(-c2ccc(C(C)(C)C)cc2)[o+]1 [2,4-bis(4-(tert-butyl)phenyl)-6-methylpyrylium boron tetrafiuoride salt] | >64
20 | Cn1cc(/C=C/c2cc(-c3ccccc3)cc(-c3ccccc3)[o+]2)c2ccccc21 [(E)-2-(2-(1-methyl-1H-indol-3-yl)vinyl)-4,6-diphenylpyrylium boron tetrafluoride salt] | 0.5
21 | CC(C)(C)c1ccc(-c2cc(/C=C/c3c[nH]c4ccccc34)[o+]c(-c3ccc(C(C)(C)C)cc3)c2)cc1 [(E)-2-(2-(1H-mdol-3-yl)vinyl)-4,6-bis(4-(tert-butyl)phenyl) pyrylium boron tetrafluoride salt] | 32
22 | CN(C)c1ccc(/C=C/C=C/c2cc(-c3ccccc3)cc(-c3ccccc3)[o+]2)cc1 [2-((1E,3E)-4-(4-(dimethylamino)phenyl)buta-1,3-dien-1-yl)-4,6-diphenyl pyrylium boron tetrafluoride salt] | 4
23 | Cc1cc(-c2ccc(Cl)cc2)cc(-c2ccc(Cl)cc2)[o+]1 [2,4-bis(4-chlorophenyl)-6-methylpyrylium boron tetrafluoride salt] | >64
24 | CN(C)c1ccc(/C=C/c2cc(-c3ccccc3)cc(-c3ccccc3)[o+]2)cc1 [(E)-2-(4-(dimethylamino)styryl)-4,6-diphenylpyrylium boron tetrafluoride salt] | 2
25 | CCc1ccc(-c2cc(/C=C/c3c[nH]c4ccccc34)[o+]c(-c3ccc(CC)cc3)c2)cc1 [(E)-2-(2-(1H-indol-3-yl)vinyl)-4,6-bis(4-ethylphenyl) pyrylium boron tetrafluoride salt] | 4
26 | CCc1ccc(-c2cc(/C=C/c3cc4c5c(c3)CCCN5CCC4)[o+]c(-c3ccc(CC)cc3)c2)cc1 [drawing 120, (E)-2,4-bis(4-ethylphenyl)-6-(2-(1,2,3,5,6,7-hexahydropyrido [3,2,1-ij]quinolin-9-yl)vinyl)pyrylium boron tetrafluoride salt] | 1
27 | Cc1ccc(-c2cc(/C=C/c3cn(C)c4ccccc34)[o+]c(-c3ccc(C)cc3)c2)cc1 [(E)-2-(2-(1-methyl-1H-indol-3-yl)vinyl)-4,6-di-p-tolylpyrylium boron tetrafluoride salt] | 0.5
28 | Cc1ccc(-c2cc(/C=C/c3ccc(N(C)C)cc3)[o+]c(-c3ccc(C)cc3)c2)cc1 [(E)-2-(4-(dimethylamino)styryl)-4,6-di-p-tolylpyrylium boron tetrafluoride salt] | 0.5
29 | CN(C)c1ccc(/C=C/C=C/c2cc(-c3ccc(C(C)(C)C)cc3)cc(-c3ccc(C(C)(C)C)cc3)[o+]2)cc1 [2,4-bis(4-(tert-butyl)phenyl)-6-((1E,3E)-4-(4-(dimethylamino)phenyl)buta-1,3-dien-1-yl)pyrylium boron tetrafluoride salt] | 64
30 | Brc1ccc(-c2cc(/C=C/c3cc4c5c(c3)CCCN5CCC4)[o+]c(-c3ccc(Br)cc3)c2)cc1 [(E)-2,4-bis(4~ bromophenyl)-6-(2-(1,2,3,5,6,7-hexahydropyrido [3,2,1-ij]quinolin-9-yl)vinyl)pyrylium boron tetrafluoride salt] | 4
31 | Cc1ccc(-c2cc(/C=C/c3cc4c5c(c3)CCCN5CCC4)[o+]c(-c3ccc(C)cc3)c2)cc1 [(E)-2-(2-(1,2,3,5,6,7-hexahydropyrido [3,2,1-ij]quinolin-9-yl)vinyl)-4,6-di-p-tolylpyrylium boron tetrafluoride salt] | 1
32 | Clc1ccc(-c2cc(/C=C/c3c[nH]c4ccccc34)[o+]c(-c3ccc(Cl)cc3)c2)cc1 [(E)-2-(2-(1H-indol-3-yl)vinyl)-4,6-bis(4-chlorophenyl) pyrylium boron tetrafluoride salt] | 16
33 | Cc1cc(-c2ccc(C)c(C)c2)cc(-c2ccc(C)c(C)c2)[o+]1 [2,4-bis(3,4-dimethylphenyl)-6-methylpyrylium boron tetrafluoride salt] | >64
34 | Cc1ccc(-c2cc(/C=C/c3cc4c5c(c3)CCCN5CCC4)[o+]c(-c3ccc(C)c(C)c3)c2)cc1C [drawing 122, (E)-2,4-bis(3.4-dimethyiphenyl)-6-(2-(1,2,3,5,6,7-hexahydropyrido [3,2,1-ij]quinolin-9-yl)vinyl)pyrylium boron tetrafluoride salt] | 0.5
35 | CCc1ccc(-c2cc(/C=C/c3cn(C)c4ccccc34)[o+]c(-c3ccc(CC)cc3)c2)cc1 [(E)-2.4-bis(4-ethylphenyl)-6-(2-(1-methyl-1H-indol-3-yl)vinyl)pyrylium boron tetrafiuoride salt] | 1
36 | Cc1ccc(-c2cc(/C=C/c3c[nH]c4ccccc34)[o+]c(-c3ccc(C)c(C)c3)c2)cc1C [(E)-2-(2-(1H-indol-3-yl)vinyl)-4,6-bis(3,4-dimethylphenyl) pyrylium boron tetrafluoride salt] | 4
